Data as given in PubChem BioAssay (NCI).
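The compound was tested at five concentrations on cells cultured in 96-well plates, with a 48-hour exposure period. The concentration for 50% growth inhibition is given as GI50. The concentration for full growth arrest is given as TGI.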

Key:
Test in all cases: inhibition of tumour cell growth, NCI panel, 48 h
SW-620 colon = system: SW-620 colon
SNB-19 CNS = system: SNB-19 CNS
OVCAR-8 ovarian = system: OVCAR-8 ovarian
BT-549 breast = system: BT-549 breast
MDA-MB-435 = system: MDA-MB-435
MDA-MB-231 breast = system: MDA-MB-231 breast
PC-3 prostate = system: PC-3 prostate
NCI/ADR-RES ovarian = system: NCI/ADR-RES ovarian
A498 renal = system: A498 renal
UO-31 renal = system: UO-31 renal
NCI-H460 lung = system: NCI-H460 lung
KM12 colon = system: KM12 colon
EKVX NSCLC = system: EKVX NSCLC
SF-268 CNS = system: SF-268 CNS
HCT-116 colon = system: HCT-116 colon
COLO 205 colon = system: COLO 205 colon
HT29 colon = system: HT29 colon
UACC-257 melanoma = system: UACC-257 melanoma
CAKI-1 renal = system: CAKI-1 renal
T-47D breast = system: T-47D breast
SF-295 CNS = system: SF-295 CNS
HCT-15 colon = system: HCT-15 colon
IGROV1 ovarian = system: IGROV1 ovarian
LOX IMVI melanoma = system: LOX IMVI melanoma
RPMI-8226 leukemia = system: RPMI-8226 leukemia
HS 578T breast = system: HS 578T breast
SK-OV-3 ovarian = system: SK-OV-3 ovarian
NCI-H23 lung = system: NCI-H23 lung
HL-60(TB) leukemia = system: HL-60(TB) leukemia
SF-539 CNS = system: SF-539 CNS
CCRF-CEM leukemia = system: CCRF-CEM leukemia
MCF7 breast = system: MCF7 breast
UACC-62 melanoma = system: UACC-62 melanoma
SK-MEL-28 melanoma = system: SK-MEL-28 melanoma
MALME-3M melanoma = system: MALME-3M melanoma
OVCAR-4 ovarian = system: OVCAR-4 ovarian
SNB-75 CNS = system: SNB-75 CNS
OVCAR-3 ovarian = system: OVCAR-3 ovarian
NCI-H226 lung = system: NCI-H226 lung
A549 NSCLC = system: A549 NSCLC
RXF 393 renal = system: RXF 393 renal
U251 CNS = system: U251 CNS
HOP-62 NSCLC = system: HOP-62 NSCLC
TK-10 renal = system: TK-10 renal
ACHN renal = system: ACHN renal
DU-145 prostate = system: DU-145 prostate
SK-MEL-5 melanoma = system: SK-MEL-5 melanoma
786-0 renal = system: 786-0 renal
M14 melanoma = system: M14 melanoma
OVCAR-5 ovarian = system: OVCAR-5 ovarian
NCI-H522 lung = system: NCI-H522 lung
SN12C renal = system: SN12C renal
HCC-2998 colon = system: HCC-2998 colon
HOP-92 NSCLC = system: HOP-92 NSCLC
SK-MEL-2 melanoma = system: SK-MEL-2 melanoma

Cc1cccc2c(C(=O)O[C@H](C(N)=O)[C@]3(C)CO3)cccc12
GI50 (SW-620 colon): 351 nM | TGI (SW-620 colon): > 79.9 µM | GI50 (SNB-19 CNS): 5.23 µM | TGI (SNB-19 CNS): > 61.7 µM | GI50 (OVCAR-8 ovarian): 465 nM | TGI (OVCAR-8 ovarian): 26.8 µM | GI50 (BT-549 breast): 1950 nM | TGI (BT-549 breast): 6.07 µM | GI50 (MDA-MB-435): 4.75 µM | TGI (MDA-MB-435): 26.8 µM | GI50 (MDA-MB-231 breast): 1990 nM | TGI (MDA-MB-231 breast): 6.57 µM | GI50 (PC-3 prostate): 1830 nM | TGI (PC-3 prostate): > 22.5 µM | GI50 (NCI/ADR-RES ovarian): 904 nM | TGI (NCI/ADR-RES ovarian): 6.34 µM | GI50 (A498 renal): 13.3 µM | TGI (A498 renal): 41.2 µM | GI50 (UO-31 renal): 1490 nM | TGI (UO-31 renal): 7.15 µM | GI50 (NCI-H460 lung): 4.31 µM | TGI (NCI-H460 lung): > 41.5 µM | GI50 (KM12 colon): 6.65 µM | TGI (KM12 colon): 42.9 µM | GI50 (EKVX NSCLC): 3.93 µM | TGI (EKVX NSCLC): 13.5 µM | GI50 (SF-268 CNS): 2300 nM | TGI (SF-268 CNS): > 100 µM | GI50 (HCT-116 colon): 135 nM | TGI (HCT-116 colon): 5.51 µM | GI50 (COLO 205 colon): 2370 nM | TGI (COLO 205 colon): 13.4 µM | GI50 (HT29 colon): 693 nM | GI50 (UACC-257 melanoma): 4.38 µM | TGI (UACC-257 melanoma): > 41.8 µM | GI50 (CAKI-1 renal): 1330 nM | TGI (CAKI-1 renal): 11.6 µM | GI50 (T-47D breast): 2750 nM | TGI (T-47D breast): 15.9 µM | GI50 (SF-295 CNS): 2110 nM | TGI (SF-295 CNS): 19.2 µM | GI50 (HCT-15 colon): 1690 nM | TGI (HCT-15 colon): 7.7 µM | GI50 (IGROV1 ovarian): 817 nM | TGI (IGROV1 ovarian): > 22.4 µM | GI50 (LOX IMVI melanoma): 92.6 nM | TGI (LOX IMVI melanoma): 1780 nM | GI50 (RPMI-8226 leukemia): 1710 nM | GI50 (HS 578T breast): 3.52 µM | TGI (HS 578T breast): > 26.8 µM | GI50 (SK-OV-3 ovarian): 7.48 µM | TGI (SK-OV-3 ovarian): 24.4 µM | GI50 (NCI-H23 lung): 1130 nM | TGI (NCI-H23 lung): 3.11 µM | GI50 (HL-60(TB) leukemia): > 100 µM | TGI (HL-60(TB) leukemia): > 100 µM | GI50 (SF-539 CNS): 496 nM | TGI (SF-539 CNS): 1570 nM | GI50 (CCRF-CEM leukemia): 599 nM | GI50 (MCF7 breast): 342 nM | TGI (MCF7 breast): > 100 µM | GI50 (UACC-62 melanoma): 481 nM | TGI (UACC-62 melanoma): 1750 nM | GI50 (SK-MEL-28 melanoma): 1910 nM | TGI (SK-MEL-28 melanoma): 5.49 µM | GI50 (MALME-3M melanoma): 3.97 µM | TGI (MALME-3M melanoma): 10.6 µM | GI50 (OVCAR-4 ovarian): 3.39 µM | TGI (OVCAR-4 ovarian): > 55.9 µM | GI50 (SNB-75 CNS): 2810 nM | TGI (SNB-75 CNS): 13.1 µM | GI50 (OVCAR-3 ovarian): 2070 nM | TGI (OVCAR-3 ovarian): 13.3 µM | GI50 (NCI-H226 lung): 556 nM | TGI (NCI-H226 lung): 2210 nM | GI50 (A549 NSCLC): 3.66 µM | TGI (A549 NSCLC): > 100 µM | GI50 (RXF 393 renal): 3.76 µM | TGI (RXF 393 renal): > 100 µM | GI50 (U251 CNS): 690 nM | TGI (U251 CNS): 8.07 µM | GI50 (HOP-62 NSCLC): 1120 nM | TGI (HOP-62 NSCLC): 4.66 µM | GI50 (TK-10 renal): 6.02 µM | TGI (TK-10 renal): 33.3 µM | GI50 (ACHN renal): 302 nM | TGI (ACHN renal): 2670 nM | GI50 (DU-145 prostate): 1170 nM | TGI (DU-145 prostate): 5.89 µM | GI50 (SK-MEL-5 melanoma): 1230 nM | TGI (SK-MEL-5 melanoma): 3.04 µM | GI50 (786-0 renal): 1400 nM | TGI (786-0 renal): 8.21 µM | GI50 (M14 melanoma): 938 nM | TGI (M14 melanoma): 2880 nM | GI50 (OVCAR-5 ovarian): 3.12 µM | TGI (OVCAR-5 ovarian): > 34.4 µM | GI50 (NCI-H522 lung): 1390 nM | TGI (NCI-H522 lung): 7.82 µM | GI50 (SN12C renal): 271 nM | TGI (SN12C renal): 2580 nM | GI50 (HCC-2998 colon): 1240 nM | TGI (HCC-2998 colon): 3.33 µM | GI50 (HOP-92 NSCLC): 2280 nM | TGI (HOP-92 NSCLC): 11.4 µM | GI50 (SK-MEL-2 melanoma): 1720 nM | TGI (SK-MEL-2 melanoma): 8.96 µM
